Columns and labels:
Test in all cases: Viral plaque reduction assay, sensitivity to acyclovir
Format in all cases: cell-based, herpes simplex virus type 2
[1] = system: HSV-2 186; settings: Human alphaherpesvirus 2; HSV-2 186 on Vero cells, plaques after 72 hours; read-out: IC50 (50% inhibitory concentration) of acyclovir
Method: (§1) Each of the viruses were plated on Vero cell monolayers in the presence of various concentrations (0-16 μM) of acyclovir. Plaques that formed after 72 hours post infection were counted and the data was used to generate the IC50 of ACV for each virus.
(§2) Plaque reduction assay. Plaque reduction assay was used as described previously (Visalli et al., 2003) with the following modifications. Vero cells were infected with approximately 50 to 100 PFU of virus per well. Acyclovir (ACV) was diluted to the desired concentrations in Dulbecco's Modified Eagle Medium (DMEM) and applied to uninfected Vero monolayers for a thirty minute pre-incubation before the addition of virus. Positive control wells received virus without ACV. Monolayers were incubated for three days at 37° C., fixed, and stained. Plaques were counted, and the data are presented as the mean of at least three independent assays.

[2] = system: UL24R; settings: Human alphaherpesvirus 2; UL24R on Vero cells, plaques after 72 hours; read-out: IC50 (50% inhibitory concentration) of acyclovir
Method: as §1, §2

[3] = system: UL24Δ; settings: Human alphaherpesvirus 2; UL24Δ on Vero cells, plaques after 72 hours; read-out: IC50 (50% inhibitory concentration) of acyclovir
Method: as §1, §2

Measured: IC50

Nc1nc2c(ncn2COCCO)c(=O)[nH]1 [acyclovir]
~3000 nM: [1] | [2] | [3]
